From ChEMBL document CHEMBL3044569, “Mini-plot field experiments using seed dressings to control slug damage to oilseed rape” (Crop Prot, 2006) come the findings set out here.

Data set [1] deals with Deroceras reticulatum. Description: Pesticidal activity against Deroceras reticulatum infected oilseed rape assessed as protection against slug damage studied in spring applied during seed dressing at 60 g a.i/kg seed after 2 to 4 weeks relative to untreated control. It is filed as functional, organism-based.
Data set [2] relates to Deroceras reticulatum. Description: Pesticidal activity against Deroceras reticulatum infected oilseed rape assessed as protection against slug damage studied in spring applied as pellet at 8 kg product/ha after 1 to 4 weeks relative to untreated control. It is filed as functional, organism-based.
The subject of data set [3] is Deroceras reticulatum. Description: Pesticidal activity against Deroceras reticulatum infected oilseed rape assessed as protection against slug damage studied in autumn applied as pellet at 8 kg product/ha after 1 to 4 weeks relative to untreated control. The format is functional, organism-based.
Data set [4] concerns Deroceras reticulatum. The data set is described as follows: Pesticidal activity against Deroceras reticulatum infected oilseed rape assessed as protection against slug damage studied in autumn applied during seed dressing at 58 g a.i/kg seed after 1 to 4 weeks relative to untreated control. It is filed as functional, organism-based.
Data set [5] concerns Brassica napus. The data set is described as follows: Phytotoxicity in Brassica napus (oilseed rape) at 60 g a.i/kg applied during seed dressing after 4 weeks studied in spring (reference value: 91 +/- 2.8 %). The conditions noted are these: in vivo, other, 672 h. It is filed as organism-based.
For data set [6], the system named is Brassica napus. Description: Phytotoxicity in Brassica napus (oilseed rape) at 58 g a.i/kg applied during seed dressing after 4 weeks studied in autumn (reference value: 89 +/- 2.9 %). It is filed as organism-based. The conditions noted are these: in vivo, other, 672 h.
Data set [7] has as its system Deroceras reticulatum. Description: Pesticidal activity against Deroceras reticulatum infected oilseed rape assessed as protection against slug damage studied in spring applied during seed dressing at 20 g a.i/kg seed after 2 to 4 weeks relative to untreated control. The format is functional, organism-based.
Data set [8] deals with Deroceras reticulatum. The data set is described as follows: Pesticidal activity against Deroceras reticulatum infected oilseed rape assessed as protection against slug damage studied in autumn applied during seed dressing at 18 g a.i/kg seed after 1 to 4 weeks relative to untreated control. It is filed as functional, organism-based.
The test system of data set [9] is Brassica napus. The data set is described as follows: Phytotoxicity in Brassica napus (oilseed rape) at 20 g a.i/kg applied during seed dressing after 4 weeks studied in spring (reference value: 91 +/- 2.8 %). It is filed as organism-based. The conditions noted are these: in vivo, other, 672 h.
Data set [10] relates to Brassica napus. Description: Phytotoxicity in Brassica napus (oilseed rape) at 18 g a.i/kg applied during seed dressing after 4 weeks studied in autumn (reference value: 89 +/- 2.9 %). The format is organism-based. Conditions: in vivo, other, 672 h.

Activity calls are given as the source filed them. The calls are words filed in the database; no cut-off is given here.

Take `CC1OC(C)OC(C)OC(C)O1` (stereo not given) [METALDEHYDE]: the outcome with Deroceras reticulatum [1], in the data set on Deroceras reticulatum [2], with Deroceras reticulatum [3] and in the data set with Deroceras reticulatum [4] was Active. The results for the Activity in the data set on Brassica napus [5] and in the data set with Brassica napus [6] were 90.3% and 77%, respectively.
With `CNC(=O)Oc1cc(C)c(SC)c(C)c1` [METHIOCARB], the outcome in the data set on Deroceras reticulatum [7] and in the data set on Deroceras reticulatum [8] was Active. Besides, the Activity is given as 87.5% in the data set with Brassica napus [9] and 86.5% in the data set on Brassica napus [10].
